Results on seven molecules are retold here after article PMC12992715, “Dual interference with host neuropeptide signaling allows parasitoid wasp to hijack host sugar metabolism” (The EMBO Journal, 2025).

In one test the test system is PxHK mRNA in the midgut. Put plainly: Ex vivo midgut incubation with sNPF and signalling inhibitors, PxHK mRNA. The format is cell-based, Plutella xylostella. Particulars: midgut ex vivo, 20 µM sNPF + 10 µM U73122 (PLCβ inhibitor), 25 °C, 1 h; n = 5; words. On the procedure:
(§1) The in vitro incubations of fat body or midgut were performed as previously described with minor modifications (Cheng et al, [2022]). The fat bodies and midguts from non-parasitised middle 4th instar P. xylostella larvae were collected in 0.5 mL of PBS. The collected tissues were then preincubated in culture dishes containing TNM-FH medium (HyClone) for 30 min. sNPF peptides or inhibitors were administered to isolated fat body and midgut in vitro using a modified method from a previous study (Oh et al, [2019]). 1 mM stock solution of pertussis toxin (PTX, Tocris Bioscience) or U73122 (MedChemExpress) was dissolved in DMSO (Sigma-Aldrich) and kept at −80 °C. 0.1 ng/µl PTX or 10 µM U73122 were then mixed with 20 µM sNPF-contained TNM-FH medium. Preincubated tissues were incubated in these mixtures at 25 °C for 1 h, followed by total RNA isolation and qPCR.

In test [1] the test system is P. xylostella larvae. Put plainly: Circulating haemolymph trehalose after injection of synthetic sNPF peptides, venom, CvBV or teratocyte content. Type of test: in vivo, Plutella xylostella. The settings on record: for effect on haemolymph trehalose level: synthetic PxsNPFs, injected into 3M larvae, measured at 4M, high dosage 0.5 ng per larva, n = 4-6, words. On the procedure: (§2) Microinjections were performed under a Stemi 2000C microscope (Zeiss) using glass capillary injection needles and an Eppendorf Femtojet (Eppendorf) with a microcontroller (Narishige). To confirm the function of bovine insulin on hosts, 1 μg bovine insulin (Sigma-Aldrich, I0305000) was injected into the middle 3rd instar P. xylostella larvae. To identify the effect of each parasitic factor on hosts, 0.05 FE CvBV or 0.05 VRE venom was injected into the abdomen of the middle 3rd instar P. xylostella larva (Wang et al, [2018]; Yu et al, [2007]). 1 TE teratocytes’ content was microinjected into the early 4th instar P. xylostella larvae. To confirm the function of each synthetic sNPF peptide, 0.005 ng, 0.05 ng, or 0.5 ng of each peptide was injected into the middle 3rd instar P. xylostella larvae in a volume of 0.1 μl/per larva once per day for 3 consecutive days.
For P. xylostella larvae, 1 μl of haemolymph from the moth was diluted 60-fold in cold PBS and subjected to trehalose determination. The fat body of P. xylostella larvae was homogenised in 200 μl of cold PBS. Half of the homogenate was centrifuged at 13,000 rpm for 15 min, and the supernatant was used for protein content determination by Bradford Reagent (Invitrogen). The rest was heated at 70 °C for 5 min followed by centrifuging at 13,000 rpm for 15 min, and the supernatant was used for glycogen determination.
Trehalose content determination was performed by the anthrone sulfate method. 15 μL of the sample was incubated with 15 μL of 1% H2SO4 at 90 °C for 10 min, then 15 μL of 30% KOH was added and incubated at 90 °C for 10 min. Finally, 300 μl of 0.2% anthrone (Sigma-Aldrich) solution in 96% H2SO4 was added and incubated at 90 °C for 10 min. All reactions were stopped by immersion in ice. To create a trehalose standard curve, 15 μl of trehalose standards (Sigma-Aldrich) were treated similarly as a sample. Finally, 100 μl of each sample was added to a 96-well plate. The absorbance of samples was then measured at 630 nm on a SpectraMax® iD5 Multi-Mode Microplate Reader (Molecular Devices), and the trehalose levels were calculated based on the standard curve and normalised by protein content or sample volume.

Test [2] deals with PxGP, PxHK and PxTPS mRNA. Nature of the test: qPCR of PxGP, PxHK, PxTPS in larvae injected with synthetic sNPF, venom, CvBV or teratocytes. The format is in vivo, Plutella xylostella.
Text: (§3) To analyse gene expression in different tissues, P. xylostella larvae were dissected under the microscope, followed by the collection of the silk gland, fat body, midgut, haemocytes and central nervous system (CNS, brain and ventral nerve cord). Haemocytes were collected on clean Parafilm membranes with capillaries by bleeding the larvae from a cut proleg. To explore gene expression at different instars of parasitised or non-parasitised larvae, non-parasitised larva was isolated individually using RNA-easy Isolation Reagent (Vazyme). Parasitoid larvae were removed before parasitised hosts were isolated. As for the measurement of other experiments, per larva with different treatments was isolated individually using RNA-easy Isolation Reagent according to the manufacturer’s instructions.
(§4) The quality and concentrations of total RNAs were estimated by electrophoresis and NanoDrop 2000 spectrophotometer (Thermo Fisher Scientific). First-strand cDNAs were synthesised using the ReverTra Ace qPCR RT kit (Toyobo) according to the manufacturer’s instructions. Both β-actin (GenBank Acc. No.: AB282645) and β-tubulin (GenBank Acc. No.: EU127912) of P. xylostella were used as internal controls. Primer sequences used for qPCR analysis are shown in Appendix Table S4. qPCR was performed by using THUNDERBIRD® SYBR qPCR Mix (Toyobo) on the CFX Connect real-time system (Bio-Rad). All qPCR assays were performed using four internal replicates and at least three biological replicates under the following conditions: 95 °C for 60 s and 40 cycles of 95 °C for 15 s and 60 °C for 30 s. Relative gene expression levels were calculated using the 2^−ΔΔCt method.
as §2
In general terms: Real-time PCR tracks product formation cycle by cycle.

In a further test the test system is PxsNPF mRNA. Nature of the test: PxsNPF mRNA after injection of venom, CvBV or teratocytes. The format is in vivo, Plutella xylostella.
Text: as §3
The quality and concentrations of total RNAs were estimated by electrophoresis and NanoDrop 2000 spectrophotometer (Thermo Fisher Scientific). First-strand cDNAs were synthesised using the ReverTra Ace qPCR RT kit (Toyobo) according to the manufacturer’s instructions. Both β-actin (GenBank Acc. No.: AB282645) and β-tubulin (GenBank Acc. No.: EU127912) of P. xylostella were used as internal controls. […] Relative gene expression levels were calculated using the 2^−ΔΔCt method. […]

Test [3] deals with P. xylostella larvae. Nature of the test: Haemolymph trehalose after bovine insulin. The format is in vivo, Plutella xylostella. The settings on record: 1 μg bovine insulin, words. On the procedure: as §2
For P. xylostella larvae, 1 μl of haemolymph from the moth was diluted 60-fold in cold PBS and subjected to trehalose determination. The fat body of P. xylostella larvae was homogenised in 200 μl of cold PBS. […]
Trehalose content determination was performed by the anthrone sulfate method. […] The absorbance of samples was then measured at 630 nm on a SpectraMax® iD5 Multi-Mode Microplate Reader (Molecular Devices), and the trehalose levels were calculated based on the standard curve and normalised by protein content or sample volume.

Test [4] deals with PxInR, PxGP, PxHK and PxTPS mRNA. Put plainly: qPCR of PxInR, PxGP, PxHK, PxTPS after bovine insulin. The format is in vivo, Plutella xylostella. The settings on record: for PxInR relative expression, average: Figure 3D; for PxInR relative expression, average / PxGP relative expression, average: normalised to Pxβ-actin and Pxβ-tubulin; for PxGP relative expression, average / PxGP relative expression: Figure 3E.
Text: as §3, §4, §2

Test [5] has as its system Spodoptera exigua and Antheraea pernyi. The settings on record: bovine insulin injection, words, ref PMID: 25703302, 34564224; cited from earlier work. An excerpt:
page 9: short summary of the existing data, including for instance, which species this experiment has been conducted in and the data linking bovine insulin to activation of insect insulin-like pathways. […] Response: Thank you for pointing out the need to better justify the use of bovine insulin in our experimental design.

Test [6] concerns PxGP mRNA in the fat body. Nature of the test: Ex vivo fat body incubation with sNPF and signalling inhibitors, PxGP mRNA. Type of test: cell-based, Plutella xylostella. The settings on record: 20 µM sNPF + PTX (0.4 µM in legend, 0.1 ng/µl in method), 25 °C, 1 h, n = 6, words. How it is done: as §1
In test [7] the target is Plutella xylostella sNPF receptor (PxsNPFR) (Plutella xylostella).

No end group written: not given here.

Turning to `COc1ccc2c(c1)CC[C@@H]1[C@@H]2CC[C@]2(C)[C@@H](NCCCCCCN3C(=O)C=CC3=O)CC[C@@H]12` [U73122, reference compound], the “effect on sPxsNPF-1-stimulated PxHK mRNA” value in the test with PxHK mRNA in the midgut is on record as “abolished the facilitatory effect of sPxsNPF-1 on PxHK”.

Consider Cotesia vestalis bracovirus [CvBV], for which the “increase of circulating trehalose” value with P. xylostella larvae [1] (0.05 FE CvBV injected into 3M larvae, at 3L, n = 3-4) is listed as 40%. In addition, the “PxGP relative expression, average” value in test [2] (Figure 4B, CvBV injection, qPCR, Pxβ-actin and Pxβ-tubulin reference, relative to PBS (normalizer 6.00), mean of 5 replicates, SD 0.29) is recorded as 0.87; in test [2] (Figure 4B, PxGP vs PBS, Pxβ-actin/Pxβ-tubulin reference, mean of 5 replicates) it was 1.73. Moreover, the “PxHK relative expression, Average” value in test [2] (Figure 4B, PxHK vs PBS, Pxβ-actin/Pxβ-tubulin reference, mean of 5 replicates) is 2.64. For the same molecule, the PxHK relative expression stood at 2.97 in [2] (Figure 4B, PxHK vs PBS, Pxβ-actin/Pxβ-tubulin reference, replicate 1); 2.49 in test [2] (Figure 4B, PxHK vs PBS, Pxβ-actin/Pxβ-tubulin reference, replicate 2); 2.41 in [2] (Figure 4B, PxHK vs PBS, Pxβ-actin/Pxβ-tubulin reference, replicate 3); 2.30 in test [2] (Figure 4B, PxHK vs PBS, Pxβ-actin/Pxβ-tubulin reference, replicate 4); 3.01 in test [2] (Figure 4B, PxHK vs PBS, Pxβ-actin/Pxβ-tubulin reference, replicate 5). Besides, the “transcript level of PxHK” value in [2] (non-parasitised larvae (whole body), CvBV, 3L, n = 5, words) is recorded as “increases the transcript level of PxHK”. For the same molecule, the PxsNPF expression entry with PxsNPF mRNA (24 h after injection, n = 3-6, words) was “an increase in PxsNPF expression 24 h after CvBV injection”. The “PxsNPF relative expression, Average” value with PxsNPF mRNA (Figure 5K, 3M, average of replicates, vs PBS) is on record as 1.99.

Consider “DTRQPVRLRF-NH2 [sPxsNPF-2, synthetic short neuropeptide F-2 of Plutella xylostella]”, for which the “effect on haemolymph trehalose level” value with P. xylostella larvae [1] was “did not have this effect”.

Take “SVRAPSMRLRF-NH2 [sPxsNPF-3, synthetic short neuropeptide F-3 of Plutella xylostella]”: the “effect on haemolymph trehalose level” value with P. xylostella larvae [1] is recorded as “did not have this effect”.

bovine insulin: the blood trehalose level entry with P. xylostella larvae [3] (normal (non-parasitised) larvae) is reported as “reduces the blood trehalose level”. The haemolymph trehalose level entry with P. xylostella larvae [3] (parasitised host, 4M, n = 4-5) is on record as “not reduced by bovine insulin in the parasitised host as in the non-parasitised group”. The PxGP expression entry in test [4] (1 μg bovine insulin, parasitised host, 4M, n = 4-5, words) is “not reduced by bovine insulin in the parasitised host as in the non-parasitised group”. Also, in test [4] (1 μg bovine insulin, whole body, 4M, n = 4-5, non-parasitised and parasitised, words), the PxInR expression result was “upregulated in both non-parasitised and parasitised hosts”. The “PxInR relative expression, average” value came out at 3.425 in test [4] (NP, mean of 5 replicates) and 7.591 in test [4] (P, mean of 4 replicates). The “PxGP relative expression, average” value in test [4] (NP, mean of 5 replicates) is given as 0.3318; in test [4] (P, mean of 4 replicates), 3.4733. Further, the PxGP relative expression in [4] (NP, replicate 1) is 0.3933; in test [4] (NP, replicate 2) it was 0.2777; in [4] (NP, replicate 3), 0.2734; in test [4] (NP, replicate 4) it was 0.4168; in test [4] (NP, replicate 5), 0.298; in [4] (P, replicate 1), 3.51. The PxGP relative expression in [4] (P, replicate 2) was determined as 4.4126; in [4] (P, replicate 3), 3.361; in [4] (P, replicate 4), 2.609. Further, in test [5], the hemolymph trehalose levels entry is listed as “significant reduction in hemolymph trehalose levels”.

Regarding pertussis toxin [PTX], in test [6], the “effect on sCvsNPF-stimulated PxGP mRNA” value is “decreased the sCvsNPF activation of PxGP”.

SQRSPSLRLRF-NH2 [synthetic CvsNPF (Cotesia vestalis short neuropeptide F)] had an inhibition of forskolin-stimulated cAMP accumulation in PxsNPFR-expressing HEK293 cells (10 μM forskolin, various peptide concentrations, 15 min; cAMP-Glo), EC50 in [7] of 402 nM.
